Columns and labels:
Assay type in all cases: biochemical
[1] = target: T1, Zea mays EPSPS variant Zm-T103A (Zea mays, UniProt O24566, T102A); test: Substrate saturation kinetic analysis with glyphosate, Zm-T103A
T1 construct: native maize plus T103A; E. coli BL21(DE3), Ni-NTA purified
T1 sequence (O24566 with tags, fused parts or gaps T102A): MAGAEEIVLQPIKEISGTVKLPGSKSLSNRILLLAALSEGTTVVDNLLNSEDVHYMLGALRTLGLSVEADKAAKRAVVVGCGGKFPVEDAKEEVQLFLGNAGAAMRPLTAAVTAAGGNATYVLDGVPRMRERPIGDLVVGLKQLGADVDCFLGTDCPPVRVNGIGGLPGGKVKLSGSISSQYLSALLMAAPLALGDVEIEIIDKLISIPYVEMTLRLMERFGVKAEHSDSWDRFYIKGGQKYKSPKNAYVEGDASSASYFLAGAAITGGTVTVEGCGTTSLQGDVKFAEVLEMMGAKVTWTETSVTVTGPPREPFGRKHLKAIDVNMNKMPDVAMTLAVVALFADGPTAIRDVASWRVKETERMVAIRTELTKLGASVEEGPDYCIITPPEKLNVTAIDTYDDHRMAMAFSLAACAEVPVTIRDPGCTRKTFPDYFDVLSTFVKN

[2] = target: T2, Zea mays EPSPS variant Zm-H6 (868-H6) with H54E (H6-H54E) (Zea mays, UniProt O24566, A1R/A3W/A415G/A71Q/D401G/E301S/E390G/G101A/H53E/I207L/K83R/L97C/T278A/T360S/T440Q/V437R); test: Rapid two-rate method for (kcat/KM)*KI, H6-H54E; conditions: [E] 0.07 uM, [Gly] 1000 uM
T2 construct: 868-H6 plus H54E; E. coli BL21(DE3), Ni-NTA purified
T2 sequence (O24566 with tags, fused parts or gaps A1R/A3W/H53E/A71Q/K83R/L97C/G101A/I207L/T278A/E301S/T360S/E390G/D401G/A415G/V437R/T440Q): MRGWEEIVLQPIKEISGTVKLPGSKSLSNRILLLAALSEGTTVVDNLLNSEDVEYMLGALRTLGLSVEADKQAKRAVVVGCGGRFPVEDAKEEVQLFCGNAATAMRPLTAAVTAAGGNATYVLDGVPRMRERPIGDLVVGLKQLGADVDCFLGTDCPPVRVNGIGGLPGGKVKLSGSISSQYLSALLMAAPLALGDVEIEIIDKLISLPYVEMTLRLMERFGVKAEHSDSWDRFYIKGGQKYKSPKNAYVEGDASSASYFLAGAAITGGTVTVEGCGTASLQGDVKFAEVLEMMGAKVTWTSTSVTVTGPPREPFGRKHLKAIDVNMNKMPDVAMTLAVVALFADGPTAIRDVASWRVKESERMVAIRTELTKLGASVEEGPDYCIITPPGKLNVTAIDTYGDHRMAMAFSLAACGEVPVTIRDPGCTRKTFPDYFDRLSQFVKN
Source text: There are several practical considerations for accurately estimating (kcat/KM)*KI with the rapid method. […] 2) The inhibitor concentration must be adjusted so as to obtain a degree of inhibition that minimally amplifies the error in the term v0-vi in Equation 3. If inhibition is too little, v0-vi will be small, and the error in the multiplier vi×v0/(v0-vi) will be large. […] 3) Substrate concentration should be set at the approximate KM of the parental variant(s), subject to the sensitivity of the assay. High substrate concentration obscures sensitivity to the inhibitor and reduces stringency for capturing improvements in KM. Depending on the necessity for speed, there exists opportunity for customizing enzyme and inhibitor concentrations. […] The rapid method was repeated for those and obtained data that correlated better with data obtained by substrate saturation analysis. For screening purposes however, that correlation step is not necessary. Conditions can be set so that variants with a pre-determined minimal fitness level are accurately quantified.
In Table 15, parameters above the heavy line for the rapid method were obtained under standard conditions. For variants shown below the heavy line, the rapid analysis was repeated with enzyme or glyphosate concentrations adjusted as needed to generate sufficient signal within the limits for linear initial rates.

[3] = target: Zea mays EPSPS variant WT-FS-D (101S 107L 302S 338S) (Zea mays, UniProt O24566, A100S/A337S/E301S/P106L); test: EPSPS substrate saturation kinetics, WT-FS-D
Chain of Zea mays EPSPS variant WT-FS-D (101S 107L 302S 338S) (O24566 entry or part of it A100S/P106L/E301S/A337S): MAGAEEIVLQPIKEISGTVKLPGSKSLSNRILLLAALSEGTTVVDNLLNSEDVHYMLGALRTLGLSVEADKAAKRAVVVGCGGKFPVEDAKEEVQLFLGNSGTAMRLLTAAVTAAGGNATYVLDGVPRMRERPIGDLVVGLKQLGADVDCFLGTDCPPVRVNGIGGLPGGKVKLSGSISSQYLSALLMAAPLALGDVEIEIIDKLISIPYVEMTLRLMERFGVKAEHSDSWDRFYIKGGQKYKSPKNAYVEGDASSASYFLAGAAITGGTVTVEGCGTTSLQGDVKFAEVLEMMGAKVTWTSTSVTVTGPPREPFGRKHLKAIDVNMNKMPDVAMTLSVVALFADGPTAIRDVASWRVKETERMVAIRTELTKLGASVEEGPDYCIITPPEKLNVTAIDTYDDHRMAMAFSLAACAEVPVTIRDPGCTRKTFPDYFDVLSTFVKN
Method: EPSPS activity was determined by quantifying the phosphate generated from the EPSPS reaction. Release of inorganic phosphate was coupled to reaction with 2-amino-6-mercapto-7-methylpurine ribonucleoside, catalyzed by purine-nucleoside phosphorylase (M R Webb, Proc. Natl. Acad. Sci. 89:4884-4887, 1992). The absorbance change that occurs was monitored at 360 nm, where the extinction is 11,200 M^−1 cm^−1, with a Spectramax plate reader (Molecular Devices). To determine kinetic parameters, the varied substrate was present at seven concentrations (the eighth being the blank, containing no substrate) ranging from 4 to 400 uM and the unvaried substrate present at saturation. […] Reactions were monitored with a Spectramax plate reader. […] KI was then calculated from the following form of the Michaelis-Menten equation for competitive inhibition: KI=KM[I]/(KM app−KM) KM approximates the dissociation constant of the enzyme-substrate complex while kcat is the rate of conversion of substrate to product when the substrate concentration is saturating. kcat/KM is a widely accepted parameter for catalytic efficiency when substrate concentration is low (˜KM). […] The parameter kcat/KM×KI is used to quantify both catalytic efficiency and insensitivity and thus the overall fitness of the enzyme. […]

Compound: O=C(O)CNCP(=O)(O)O [glyphosate, N-phosphonomethylglycine]
- Ki [1]: 208 µM
- (kcat/KM)*KI ([1]; substrate saturation, Zm-T103A): 321
- (kcat/KM)*KI [2]: 4529
- Ki [3]: 3.81 µM
- (kcat/KM)*KI ([3]; PEP as substrate, glyphosate as inhibitor): 346

From patent US11549123B2, “Plant EPSP synthases and methods of use” (PIONEER HI-BRED INTERNATIONAL, INC., priority 2015, dated 2023)
